Measurements: patent publication US10155764B2, “Therapeutic compounds and uses thereof” (GENENTECH, INC., priority 2014, dated 2018)
Structures can show the parent of a compound that is named as a salt.

Target: PCAF719-832 bromodomain (Homo sapiens (Human), UniProt Q92831)
Assay: PCAF AlphaLisa binding assay
Conditions: PCAF bromodomain 225 nM, biotinylated small molecule ligand 6 nM

Chain of PCAF719-832 bromodomain (Q92831 719-832): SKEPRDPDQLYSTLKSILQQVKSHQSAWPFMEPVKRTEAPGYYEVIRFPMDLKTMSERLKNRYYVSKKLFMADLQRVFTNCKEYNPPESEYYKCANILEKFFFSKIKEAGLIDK

IC50 [nM]	SMILES
59	C[C@H](Nc1nn(C)c(=O)c2cccnc12)[C@H](c1ccc(C(=O)N2CCOCC2)cc1)N(C)C [Example 82, 8-(((1S,2S)-1-(dimethylamino)-1-(4-(morpholine-4-carbonyl)phenyl)propan-2-yl)amino)-6-methylpyrido[2,3-d]pyridazin-5(6H)-one]
30	CC(C)OC(=O)c1ccc([C@@H]([C@H](C)Nc2nn(C)c(=O)c3cccnc23)N(C)C)cc1 [Example 86, Isopropyl 4-((1S,2S)-1-(dimethylamino)-2-((6-methyl-5-oxo-5,6-dihydropyrido[2,3-d]pyridazin-8-yl)amino)propyl)benzoate]
29	C[C@H](Nc1nn(C)c(=O)c2cccnc12)[C@H](c1ccc(C(=O)OCc2ccccc2)cc1)N(C)C [Example 87, benzyl 4-((1S,2S)-1-(dimethylamino)-2-((6-methyl-5-oxo-5,6-dihydropyrido[2,3-d]pyridazin-8-yl)amino)propyl)benzoate hydrochloride]
80	C[C@H](Nc1nn(C)c(=O)c2ccccc12)[C@H](c1ccc(=O)[nH]c1)N(C)C [Example 88, 4-(((1S,2S)-1-(dimethylamino)-1-(6-oxo-1,6-dihydropyridin-3-yl)propan-2-yl)amino)-2-methylphthalazin-1(2H)-one]
